Read-outs that look alike come from different tables or passages of the source.

Test [1] has as its system acetylcholine induced bronchoconstriction. Briefly: inhibition of acetylcholine induced bronchoconstriction, Konzett and Rossler method (Table B). The format is in vivo, Male Hartley Guinea Pigs. The conditions noted are these: IV; for inhibition in vivo at 0.13 µmol/kg / inhibition in vivo at 0.42 µmol/kg / inhibition in vivo at 1.53 µmol/kg / inhibition in vivo at 3.6 µmol/kg / inhibition in vivo at 0.46 µmol/kg / inhibition in vivo at 1.5 µmol/kg / inhibition in vivo at 1.48 µmol/kg / inhibition in vivo at 0.47 µmol/kg / inhibition in vivo at 0.48 µmol/kg: Cavia porcellus. On the procedure: Male Hartley Guinea Pigs (450-500 g) were anaesthetised with ethyl carbamate and prepared for recording bronchoconstriction according to Konzett and Rossler method (Naunym Schmiedebergers Arch. Exp. Path. Pharmakol (1940) 195, 71). To abolish spontaneous respiration, an injection IV of vecuronium bromide (2 mg/kg) was made. Bronchoconstriction was induced by IV injection of Acetylcholine and the animals received one dose of β agonist compound (IV) 5 minutes later.

Test [2] has as its target β adrenoceptors. Briefly: radioligand binding studies in lung membrane (Table A, binding affinity). The text has this:
The results are summarised in Table A. Generally, the activity is better for the trans than the cis isomer.

Where [3] appears, read: 5 min, 0.13 μmol/kg, 5 mn, read-out: bronchoconstriction protection, score 5 mn.
Where [4] appears, read: 0.25 h, 0.13 μmol/kg, 15 mn, read-out: bronchoconstriction protection, score 15 mn.
Setting [5] is: 0.5 h, 0.13 μmol/kg, 30 mn, read-out: bronchoconstriction protection, score 30 mn.
[6] abbreviates: 5 min, 0.46 μmol/kg, 5 mn, read-out: bronchoconstriction protection, score 5 mn.
Setting [7] is: 0.25 h, 0.46 μmol/kg, 15 mn, read-out: bronchoconstriction protection, score 15 mn.
Where [8] appears, read: 0.5 h, 0.46 μmol/kg, 30 mn, read-out: bronchoconstriction protection, score 30 mn.

In general, Ki refers to the dissociation constant of the complex between target and ligand, obtained from inhibition or displacement. A higher Ki goes with weaker binding. As for `COc1cc([C@H]2CC[C@H](CNCC(O)c3ccc(O)c(CO)c3)O2)cc(OC)c1OC` (relative stereo) [Example 2 (trans), 2-(3',4',5'-trimethoxyphenyl)-5-[N-[β-(3'-hydroxymethyl-4'-hydroxy-phenyl)-β-hydroxy-ethyl]-aminomethyl]-tetrahydrofuran], the “bronchoconstriction protection, duration of action” value (shortened to “bronchoconstriction protection”) in test [1] (0.13 μmol/kg) was 30 mn; in test [1] (0.42 μmol/kg) it was more than 50 mn. Also, the inhibition in vivo at 0.13 µmol/kg was more than 75% in test [1] (setting [3]), 50 to 75% in test [1] (setting [4]) and 20 to 50% in test [1] (setting [5]). Also, the inhibition in vivo at 0.42 µmol/kg is more than 75% in test [1] (5 min, 0.42 μmol/kg, 5 mn, read-out: bronchoconstriction protection, score 5 mn); more than 75% in test [1] (0.25 h, 0.42 μmol/kg, 15 mn, read-out: bronchoconstriction protection, score 15 mn); more than 75% in test [1] (0.5 h, 0.42 μmol/kg, 30 mn, read-out: bronchoconstriction protection, score 30 mn). Moreover, the affinity in test [2] corresponds to a Ki of 80 nM.

Take `COc1ccc([C@H]2CC[C@H](CNCC(O)c3ccc(O)c(CO)c3)O2)c(OC)c1OC` (relative stereo) [Example 3 (trans), 2-(2',3',4'-trimethoxyphenyl)-5-[N-[β-(3'-hydroxymethyl-4'-hydroxy-phenyl)-β-hydroxy-ethyl]-aminomethyl]-tetrahydrofuran]: the figures for the “bronchoconstriction protection” value in test [1] (1.53 μmol/kg) and in test [1] (3.6 μmol/kg) were 5 mn and 30 mn, respectively. For the same compound, the inhibition in vivo at 1.53 µmol/kg in test [1] (5 min, 1.53 μmol/kg, 5 mn, read-out: bronchoconstriction protection, score 5 mn) was 20 to 50%; in test [1] (0.25 h, 1.53 μmol/kg, 15 mn, read-out: bronchoconstriction protection, score 15 mn), less than 20%; in test [1] (0.5 h, 1.53 μmol/kg, 30 mn, read-out: bronchoconstriction protection, score 30 mn), less than 20%. The inhibition in vivo at 3.6 µmol/kg fell in the range of 50 to 75% in test [1] (5 min, 3.6 μmol/kg, 5 mn, read-out: bronchoconstriction protection, score 5 mn); 20 to 50% in test [1] (0.25 h, 3.6 μmol/kg, 15 mn, read-out: bronchoconstriction protection, score 15 mn); 20 to 50% in test [1] (0.5 h, 3.6 μmol/kg, 30 mn, read-out: bronchoconstriction protection, score 30 mn). This compound also came in with a Ki in test [2] of 1600 nM.

For the compound `OCc1cc(C(O)CNC[C@@H]2CC[C@H](c3ccccc3Cl)O2)ccc1O` (relative stereo) [Example 4 (cis), 2-(2'-chlorophenyl)-5-[N-[β-(3'-hydroxymethyl-4'-hydroxy-phenyl)-β-hydroxy-ethyl]-aminomethyl]-tetrahydrofuran], the “bronchoconstriction protection” value in test [1] (0.46 μmol/kg) is listed as 10 mn; in test [1] (1.5 μmol/kg), less than 40 mn. In addition, the inhibition in vivo at 0.46 µmol/kg was 50 to 75% in test [1] (setting [6]), less than 20% in test [1] (setting [7]) and less than 20% in test [1] (setting [8]). For the same compound, the inhibition in vivo at 1.5 µmol/kg was 50 to 75% in test [1] (5 min, 1.5 μmol/kg, 5 mn, read-out: bronchoconstriction protection, score 5 mn); 50 to 75% in test [1] (0.25 h, 1.5 μmol/kg, 15 mn, read-out: bronchoconstriction protection, score 15 mn); 20 to 50% in test [1] (0.5 h, 1.5 μmol/kg, 30 mn, read-out: bronchoconstriction protection, score 30 mn). In test [2], this compound registered a Ki of 347 nM.

In the case of `OCc1cc(C(O)CNC[C@H]2CC[C@H](c3ccccc3Cl)O2)ccc1O` (relative stereo) [Example 4 (trans), 2-(2'-chlorophenyl)-5-[N-[β-(3'-hydroxymethyl-4'-hydroxy-phenyl)-β-hydroxy-ethyl]-aminomethyl]-tetrahydrofuran], the “bronchoconstriction protection” value in test [1] (0.46 μmol/kg) is given as 10 mn; in test [1] (1.48 μmol/kg), more than 25 mn. The inhibition in vivo at 0.46 µmol/kg in test [1] (setting [6]) was more than 75%; in test [1] (setting [7]), less than 20%; in test [1] (setting [8]) it was less than 20%. Further, the inhibition in vivo at 1.48 µmol/kg in test [1] (5 min, 1.48 μmol/kg, 5 mn, read-out: bronchoconstriction protection, score 5 mn) was more than 75%; in test [1] (0.25 h, 1.48 μmol/kg, 15 mn, read-out: bronchoconstriction protection, score 15 mn) it was 50 to 75%; in test [1] (0.5 h, 1.48 μmol/kg, 30 mn, read-out: bronchoconstriction protection, score 30 mn), 50 to 75%. In addition, the Ki in test [2] came to 400 nM.

For `OCc1cc(C(O)CNC[C@@H]2CC[C@H](c3cccc(Cl)c3)O2)ccc1O` (relative stereo) [Example 5 (cis), 2-(3'-chlorophenyl)-5-[N-[β-(3'-hydroxymethyl-4'-hydroxy-phenyl)-β-hydroxy-ethyl]-aminomethyl]-tetrahydrofuran], in test [1] (0.47 μmol/kg), the “bronchoconstriction protection” value was less than 10 mn. Moreover, the inhibition in vivo at 0.47 µmol/kg is 20 to 50% in test [1] (5 min, 0.47 μmol/kg, 5 mn, read-out: bronchoconstriction protection, score 5 mn); less than 20% in test [1] (0.25 h, 0.47 μmol/kg, 15 mn, read-out: bronchoconstriction protection, score 15 mn); less than 20% in test [1] (0.5 h, 0.47 μmol/kg, 30 mn, read-out: bronchoconstriction protection, score 30 mn). Moreover, the Ki in test [2] is 760 nM.

For the compound `OCc1cc(C(O)CNC[C@H]2CC[C@H](c3cccc(Cl)c3)O2)ccc1O` (relative stereo) [Example 5 (trans), 2-(3'-chlorophenyl)-5-[N-[β-(3'-hydroxymethyl-4'-hydroxy-phenyl)-β-hydroxy-ethyl]-aminomethyl]-tetrahydrofuran], the “bronchoconstriction protection” value in test [1] (0.46 μmol/kg) is on record as more than 20 mn. For the same compound, the inhibition in vivo at 0.46 µmol/kg in test [1] (setting [6]) was 50 to 75%; in test [1] (setting [7]) it was 20 to 50%; in test [1] (setting [8]), 20 to 50%. Further, the Ki in test [2] was found to be 750 nM.

As for `COc1ccc([C@H]2CC[C@@H](CNCC(O)c3ccc(O)c(CO)c3)O2)cc1OC` (relative stereo) [Example 8 (cis), 2-(3',4'-dimethoxyphenyl)-5-[N-[β-(3'-hydroxymethyl-4'-hydroxy-phenyl)-β-hydroxyethyl]-aminomethyl]-tetrahydrofuran], in test [1] (0.48 μmol/kg), the “bronchoconstriction protection” value was less than 30 mn. Moreover, the inhibition in vivo at 0.48 µmol/kg in test [1] (5 min, 0.48 μmol/kg, 5 mn, read-out: bronchoconstriction protection, score 5 mn) was 50 to 75%; in test [1] (0.25 h, 0.48 μmol/kg, 15 mn, read-out: bronchoconstriction protection, score 15 mn), 20 to 50%; in test [1] (0.5 h, 0.48 μmol/kg, 30 mn, read-out: bronchoconstriction protection, score 30 mn) it was less than 20%. This compound also showed a Ki in test [2] of 1100 nM.

For the compound `COc1ccc([C@H]2CC[C@H](CNCC(O)c3ccc(O)c(CO)c3)O2)cc1OC` (relative stereo) [Example 8 (trans), 2-(3',4'-dimethoxyphenyl)-5-[N-[β-(3'-hydroxymethyl-4'-hydroxy-phenyl)-β-hydroxyethyl]-aminomethyl]-tetrahydrofuran], the figures for the “bronchoconstriction protection” value in test [1] (0.13 μmol/kg) and in test [1] (0.46 μmol/kg) were 30 mn and more than 30 mn, respectively. In addition, the results for the inhibition in vivo at 0.13 µmol/kg in test [1] (setting [3]), in test [1] (setting [4]) and in test [1] (setting [5]) were 50 to 75%, 20 to 50% and 20 to 50%, respectively. Further, the inhibition in vivo at 0.46 µmol/kg was in the range of 50 to 75% in test [1] (setting [6]), 50 to 75% in test [1] (setting [7]) and 20 to 50% in test [1] (setting [8]). The affinity in test [2] corresponds to a Ki of 1050 nM.

`COc1cc([C@H]2CC[C@@H](CCCNCC(O)c3ccc(O)c(CO)c3)O2)cc(OC)c1OC` (relative stereo) [Example 15 (cis), 2-(3',4',5'-trimethoxyphenyl)-5-[-N-[β-(3'-hydroxymethyl-4'-hydroxy-phenyl)-β-hydroxy-ethyl]-aminopropyl]-tetrahydrofuran] returned a Ki in test [2] of 1900 nM.

In test [2], `COc1cc(C2CCC(CNCC(O)c3ccc(O)c(CO)c3)O2)cc(OC)c1OC` (single isomer, unassigned) [Example 2 (trans) (+), 2-(3',4',5'-trimethoxyphenyl)-5-[N-[β-(3'-hydroxymethyl-4'-hydroxy-phenyl)-β-hydroxy-ethyl]-aminomethyl]-tetrahydrofuran] returned a Ki of 50 nM.

Consider `COc1cc(C2CCC(CNCC(O)c3ccc(O)c(CO)c3)O2)cc(OC)c1OC` (single isomer, unassigned) [Example 2 (trans) (-), 2-(3',4',5'-trimethoxyphenyl)-5-[N-[β-(3'-hydroxymethyl-4'-hydroxy-phenyl)-β-hydroxy-ethyl]-aminomethyl]-tetrahydrofuran], for which affinity in test [2] was put at a Ki of 350 nM.

Turning to `CCCC1CCC(CNCC(O)c2ccc(O)c(CO)c2)O1` (stereo not drawn) [Example 11, 2-propyl-5-[N-[β-(3'-hydroxymethyl-4'-hydroxy-phenyl)-β-hydroxy-ethyl]-aminomethyl]-tetrahydrofuran], the Ki in test [2] was found to be 520 nM.

These data come from patent US5447942A, “N-derivatives of (phenylethyl-β-ol) amine, a process for their preparation and pharamaceutical compositions containing the same” (Societe de Conseils de Recherches et d'Applications …, priority 1992, dated 1995).
